One data set can be described thus: Solubility. Particulars: as previously described (refs 27, 31, 36). The format is physicochemical. As for the experimental part: (§1) Determination of the chemical and photophysical properties (LogP, solubility, serum binding, net charge, and brightness) was performed as previously described.
The nature of another data set: LogP. The format is physicochemical. Particulars: as previously described (refs 27, 31, 36). As for the experimental part: as §1
Another data set can be described thus: Serum binding. The format is in vitro ADME. Particulars: as previously described (refs 27, 31, 36). As to the method: as §1
A further data set has as its target T1, P0 (Rattus norvegicus, UniProt P06907).
T1 construct: performed using P0-expressing RT4 D6P2T cells; host or cells: RT4 D6P2T myelinating Schwannoma cells
T1 sequence (P06907 30-248): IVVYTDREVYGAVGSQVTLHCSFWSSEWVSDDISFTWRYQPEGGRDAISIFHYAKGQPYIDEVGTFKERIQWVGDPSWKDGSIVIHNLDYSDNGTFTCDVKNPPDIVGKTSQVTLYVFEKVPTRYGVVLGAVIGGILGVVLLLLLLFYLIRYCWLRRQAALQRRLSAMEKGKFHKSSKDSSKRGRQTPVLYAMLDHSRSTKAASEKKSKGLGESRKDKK
In words: P0 affinity (KD) via flow cytometry saturation binding. The conditions noted are these: saturation binding on P0-expressing RT4 D6P2T Schwannoma cells, flow cytometry (APC-A), 0–2000 nM, triplicate, repeated at least two times per tracer. A general note: Flow cytometry measures light scatter and fluorescence of single cells or particles in a stream.

Converted amounts (≈) assume the structure as drawn. Like-named read-outs stand apart in the source and are kept apart here. Where a SMILES comes first, the peptide text is derived from it. The star is where a group is joined. X1 = CC1(C)C(/C=C/C=C/C=C2/N(CCCCS(=O)(=O)O)c3ccc(S(=O)(=O)O)cc3C2(C)C)=[N+](CCCCCC(=O)NCCN2C(=O)CC(*)C2=O)c2ccc(S(=O)(=O)[O-])cc21

Description for P0: The mean fluorescence intensity values per sample were measured using an LSRII flow cytometer (BD Biosciences, Franklin Lakes, NJ, USA) with APC-A settings (635 nm laser and 750 nm long-pass filter) for a Cy5 dye. […] For the affinity assessment, fluorescence was measured using a FACSCanto II flow cytometry device (BD Biosciences, Franklin Lakes, NJ, USA) in the APC-A channel, and the accompanying FlowJo^TM v5 software (BD Biosciences, Franklin Lakes, NJ, USA) was used for further analysis.
Saturation binding experiments were performed for each of the fluorescent peptides in a concentration range of 0–2000 nM. All measurements were performed in triplicate, and experiments were repeated at least two times per tracer. The fluorescence was measured using a FACSCanto II flow cytometry device (BD Biosciences) in the APC-A channel, and the accompanying FlowJo software was used for further analysis. KD assessment was performed using the normalized geometric means, which were fitted with equations in GraphPad Prism 5 software.
A statistical evaluation to compare the affinity (KD) was performed using unpaired Student’s t-test. Values of p < 0.05 were considered significant.

`CC[C@H](C)[C@H](NC(=O)[C@H](CC(=O)O)NC(=O)[C@@H]1CCCN1C(=O)[C@@H]1CCCN1C(=O)[C@H](CC(N)=O)NC(=O)[C@H](CCCCN)NC(C)=O)C(=O)N[C@@H](CSC1CC(=O)N(CCNC(=O)CCCCC[N+]2=C(/C=C/C=C/C=C3/N(CCCCS(=O)(=O)O)c4ccc(S(=O)(=O)O)cc4C3(C)C)C(C)(C)c3cc(S(=O)(=O)[O-])ccc32)C1=O)C(N)=O` (stereo partly shown) [Cy5-P0_101–106] (Ac-KNPPDIC(X1)-NH2) displayed a Solubility in the data set “Solubility” of more than 400 µM. The LogP in “LogP” (read-out: LogP) is -0.95 ± 0.05. The same molecule had a fraction unbound in the data set “Serum binding” of 0.53.
In the case of `CC(=O)NCC(=O)N[C@@H](CCCCN)C(=O)N[C@H](C(=O)N[C@@H](CO)C(=O)N[C@@H](CCC(N)=O)C(=O)N[C@H](C(=O)N[C@H](C(=O)N[C@@H](CC(C)C)C(=O)N[C@@H](Cc1ccc(O)cc1)C(=O)N[C@H](C(=O)N[C@@H](Cc1ccccc1)C(=O)N[C@@H](CCC(=O)O)C(=O)N[C@@H](CCCCN)C(=O)N[C@H](C(=O)N1CCC[C@H]1C(=O)N[C@H](C(=O)N[C@@H](CCCNC(=N)N)C(=O)N[C@@H](Cc1ccc(O)cc1)C(=O)N[C@@H](CSC1CC(=O)N(CCNC(=O)CCCCC[N+]2=C(/C=C/C=C/C=C3/N(CCCCS(=O)(=O)O)c4ccc(S(=O)(=O)O)cc4C3(C)C)C(C)(C)c3cc(S(=O)(=O)[O-])ccc32)C1=O)C(N)=O)[C@@H](C)O)C(C)C)C(C)C)[C@@H](C)O)C(C)C)[C@@H](C)O` (stereo partly shown) [Cy5-P0_108–125] (Ac-GKTSQVTLYVFEKVPTRYC(X1)-NH2), the Kd at P0 came out at 83 nM. Moreover, the log partition coefficient (LogP) in the data set “LogP” was −1.34 + 0.03. Further, the fraction unbound in the data set “Serum binding” is 0.31.
`CC(=O)N[C@@H](CCC(N)=O)C(=O)N[C@H](C(=O)N[C@H](C(=O)N[C@@H](CC(C)C)C(=O)N[C@@H](Cc1ccc(O)cc1)C(=O)N[C@H](C(=O)N[C@@H](Cc1ccccc1)C(=O)N[C@@H](CCC(=O)O)C(=O)N[C@@H](CCCCN)C(=O)N[C@H](C(=O)N1CCC[C@H]1C(=O)N[C@H](C(=O)N[C@@H](CCCNC(=N)N)C(=O)N[C@@H](Cc1ccc(O)cc1)C(=O)N[C@@H](CSC1CC(=O)N(CCNC(=O)CCCCC[N+]2=C(/C=C/C=C/C=C3/N(CCCCS(=O)(=O)O)c4ccc(S(=O)(=O)O)cc4C3(C)C)C(C)(C)c3cc(S(=O)(=O)[O-])ccc32)C1=O)C(N)=O)[C@@H](C)O)C(C)C)C(C)C)[C@@H](C)O)C(C)C` (stereo partly shown) [Cy5-P0_112–125] (Ac-QVTLYVFEKVPTRYC(X1)-NH2) had a Kd on P0 of 69 nM. For the same molecule, the Solubility in the data set “Solubility” was 71 µM (≈ 197 µg/mL); in the data set “Solubility” (listed as Cy5P0_112–125) it was “relatively low solubility”. Moreover, the LogP in “LogP” is −1.08 + 0.03.
For the molecule `CC(=O)N[C@@H](Cc1ccc(O)cc1)C(=O)N[C@H](C(=O)N[C@@H](Cc1ccccc1)C(=O)N[C@@H](CCC(=O)O)C(=O)N[C@@H](CCCCN)C(=O)N[C@H](C(=O)N1CCC[C@H]1C(=O)N[C@H](C(=O)N[C@@H](CCCNC(=N)N)C(=O)N[C@@H](Cc1ccc(O)cc1)C(=O)N[C@@H](CSC1CC(=O)N(CCNC(=O)CCCCC[N+]2=C(/C=C/C=C/C=C3/N(CCCCS(=O)(=O)O)c4ccc(S(=O)(=O)O)cc4C3(C)C)C(C)(C)c3cc(S(=O)(=O)[O-])ccc32)C1=O)C(N)=O)[C@@H](C)O)C(C)C)C(C)C` (stereo partly shown) [Cy5-P0_116–125] (Ac-YVFEKVPTRYC(X1)-NH2), the affinity on P0, expressed as Kd, was 147 ± 80 nM. In “Solubility”, this molecule gave a Solubility of 150 µM (≈ 350 µg/mL). Further, the LogP in the data set “LogP” is recorded as −1.58 + 0.03.
In “Solubility”, `CC(=O)N[C@@H](CCCCN)C(=O)N[C@H](C(=O)N1CCC[C@H]1C(=O)N[C@H](C(=O)N[C@@H](CCCNC(=N)N)C(=O)N[C@@H](Cc1ccc(O)cc1)C(=O)N[C@@H](CSC1CC(=O)N(CCNC(=O)CCCCC[N+]2=C(/C=C/C=C/C=C3/N(CCCCS(=O)(=O)O)c4ccc(S(=O)(=O)O)cc4C3(C)C)C(C)(C)c3cc(S(=O)(=O)[O-])ccc32)C1=O)C(N)=O)[C@@H](C)O)C(C)C` (stereo partly shown) [Cy5-P0_120–125] (Ac-KVPTRYC(X1)-NH2) displayed a Solubility of 150 µM (≈ 269 µg/mL). For the same molecule, the LogP in “LogP” is −1.59 + 0.01. This molecule also gave a free fraction (fraction unbound) in the data set “Serum binding” of 0.29.

One may read the Solubility as the dissolved amount per volume that the medium holds. As a reminder, the LogP is a log measure of how a compound divides between an organic and an aqueous phase. Usually fraction unbound stands for free concentration divided by total concentration. Broadly, the Kd is the free concentration of one partner at which half of the binding sites on the other are occupied at equilibrium, for simple one-to-one binding. Read a low Kd as a tighter complex.

The values are drawn from article PMC10296720, “A Truncated 14-Amino-Acid Myelin Protein-Zero-Targeting Peptide for Fluorescence-Guided Nerve-Preserving Surgery” (Biomolecules, 2023).
